Laboratory results: patent US20070026090A1, “Treatment and prevention of inflammatory disease and mitochondrial dysfunction with high dose selenium” (priority 2003, published 2007)
Entries after “also recorded” stand apart in the source; their conditions may differ.

Experiments:
[1] = test system: glutathione peroxidase (GPx); assay: GPx activity in macrophage cell extract; assay type: cell-based, murine; conditions: 24 h; range 0.5-30 μM (FIG. 8B)
Method: Cell culture: Murine J774.2 macrophages (kindly provided by Prof. Dov Zipori from the Weizmann Institute of Science) were grown in RPMI medium supplemented with 10% (w/v) fetal calf serum, penicillin (100 U/ml), streptomycin (100 μg/ml) and 1× glutamine at 37° C. in a humidified atmosphere consisting of 95% air and 5% CO2. Experiments were performed on cells at 60% confluence.
GPx activity: GPx activity was determined by following the rate of NADPH oxidation at 340 nm in the presence of the substrates: 3 mM glutathione (GSH), 1.2 U glutathione reductase (GR) and 1.5% H2O2, using a microfluorometer plate reader (GENios, Tecan, Austria). The reaction contained 500 μl Tris reaction buffer (100 mM Tris Hcl, 300 mM Kcl, 5 mM EDTA, 1 mM NaN3, pH 7.0), substrates and 100 μl cell extract. Macrophages were treated with selenium for 24 h. Wells were washed twice with PBS, cells permeabilized, and scraped using 200 μl 0.2% Triton X-100. The reaction was recorded every minute for 25 minutes. Slopes were calculated and the results were adjusted according to the protein amount calculated with the Bradford reagent.

[2] = in vivo; cited from earlier work
[3] = test system: 18S RNA and GAPDH; assay: Housekeeping transcripts 18S and GAPDH in colon tissue (RT-PCR); assay type: in vivo, rat; conditions: supplemented rats (FIG. 7A)
[4] = test system: mitochondrial DNA (D-loop region); assay: Mitochondrial DNA analysis in the colon (D-loop PCR); assay type: in vivo, rat
Method: Mitochondrial DNA analysis in the colon: Tissue content of mitochondrial DNA was determined using specific primers for the D-loop region in the mitochondrial DNA. Mitochondrial colon tissue genomic DNA, was prepared using the Promega Wizard Genomic DNA Purification Kit (Promega Corp, Madison, Wis.). Mitochondrial DNA was amplified by the PCR reaction: Twenty cycles were used for the amplification with 25 ng total tissue DNA as template. Saturation in intensity of PCR products was observed after 24 cycles.
Primers: Left (sense) 5′-[…]-3′ (SEQ ID NO:1), corresponding to nucleotides 468 to 489 of rat mitochondrial D-loop region DNA (GenBank Accession No. X52757.1).
Right (antisense) 5′-[…]-3′ (SEQ ID NO:2) corresponding to nucleotides 988 to 967 of rat mitochondrial D-loop DNA (GenBank Accession No. X52757.1).
The expected PCR product was 520 bp. Actual PCR product was approximately 520 bp, measured on 1.25% agarose gel in TAE containing ethidium bromide.

[5] = test system: cytochrome c; assay: Cytochrome c protein in colon tissue (Western blot); assay type: in vivo, rat
From the text: Western blotting—analysis of Cytochrome c: Colon tissue samples were boiled and kept in sample buffer (Sigma-Aldrich Corp., St Louis, Mo.) immediately following isolation. For electrophoretic separation and immunodetection, the samples were reboiled, and subjected to SDS-PAGE followed by Western blot analysis. Briefly, separated proteins were transferred electrophoretically from the gel to a nitrocellulose membrane (Amersham International plc, Buckinghamshire, England). The membrane was blocked in TBS (0.15 M NaCl/10 mM Tris/HCl [pH7.4]) containing 5% (v/v) skim milk (Blotto), then incubated overnight with the primary antibody at 4° C. (diluted 1/1000 in Blotto). Following six washes in TBST (TBS containing 0.05% v/v Tween 20), the membrane was incubated for 2 hours at room temperature with the secondary antibody (diluted 1/1000 in Blotto). Immunoreactive bands were detected with ECL western blotting detection reagents and developed on film (Shilo et al., 2003). Separated proteins were transferred electrophoretically from the gel to a nitrocellulose membrane (Amersham International plc, Buckinghamshire, England). […] Immunoreactive bands were visualized by detection with ECL Western blotting detection reagents (ECL, Amersham Biosciences, Uppsala, Sweden) followed by exposure of film and quantitation by densitometry (Shilo et al., 2003).

[6] = test system: mtTFA; assay: mtTFA mRNA in colon tissue (RT-PCR); assay type: in vivo, rat
Method: Mitochondrial (mt) TFA, NRF1, and cytochrome c mRNA analysis: Total RNA was extracted from 50 to 100 mg tissue at a time using 1 ml of Tri Reagent® (Sigma-Aldrich Corp., St. Louis, Mo.) according to manufacturer's instructions. First strand cDNA synthesis was carried out using reverse-iTTM First Strand Synthesis from Advanced Biotechnologies (ABgene®, ABgene, Epsom, U.K.) was used according to the manufacturer's instructions. Target sequences were amplified in the PCR reaction as follows: each tube contained 37 ng of cDNA from cytochrome c, GAPDH, or 18S, 3 μl of specific primers, 12.5 μl of ready Mix and 6.5 μl water DEPC (for a total 25 μl in each tube).
The PCR for cytochrome c, NRF1 and mtTFA was run at 95° C. for 5 min, 94° C. for 30 sec, 56° C. for 2 min, 72° C. for 1 min, back to stage 2 for 22, 26, 24 cycles, respectively, then 72° C. for 10 min, and 4° C. The products of the PCR were separated on a 1% agarose gel in TAE buffer with ethidium bromide. The electrophoresis took place in a BioRad device in 1×TAE buffer at 95 V for about 50 min (maximum mA). The size of the cDNA was determined by a 100-bp marker.
Rat mtTFA: (Antisense) 5′-[…]-3′ (SEQ ID No. 15) corresponding to nucleotides 756 to 777 of rat mtMTFA (GenBank Accession No. AJ312746).
(Sense): 5′-[…]-3′ (SEQ ID No. 16). The expected PCR product was 417 bp, the actual 417 bp.

SMILES: [Se] [selenium]
- concentration of maximum stimulation of GPx activity [1]: 0.5 µM
- carcinogenesis in male mice [2]: unaffected
- 18S and GAPDH transcription [3]: without effecting
- mitochondrial DNA in colon tissue, colitis-induced rats ([4]; 24 h after TNBS, supplemented vs unsupplemented (FIG. 6)): intact mitochondrial DNA; also recorded: protects against the loss
- mitochondrial DNA in colon tissue, uninduced rats ([4]; TNBS−, Se suppl+ (FIG. 6)): No change
- inflammation-associated alterations of cytochrome c protein ([5]; 24 h after TNBS, supplemented (FIG. 7B lane 4 vs lane 3)): completely prevented
- characteristics of cytochrome c protein, healthy uninduced rats ([5]; FIG. 7B lane 1 vs lane 2): no effect
- mtTFA levels in colon tissue, colitis-induced rats ([6]; 24 h after TNBS, supplemented (FIG. 17 lane 4), unsupplemented nearly absolute loss): surpass that of healthy control rats
- mtTFA levels in colon tissue, healthy rats ([6]; healthy supplemented rats (FIG. 17 lane 2)): significantly enhances
